Test results taken from patent publication US9204640B2, “2-acyloxy-pyrrolin-4-ones” (BAYER INTELLECTUAL PROPERTY GMBH, priority 2011, dated 2015).

What was measured:
Format in all cases: in vivo
Myzus persicae = assay: Myzus test (MYZUPE spray treatment); details: application rate 500 g/ha, after 5 days, Chinese cabbage leaf discs
Description: Myzus Test (MYZUPE Spray Treatment) [table] To produce a suitable preparation of active compound, 1 part by weight of active compound is mixed with the stated amount of solvent and emulsifier, and the concentrate is diluted with emulsifier-containing water to the desired concentration. Discs of Chinese cabbage (Brassica pekinensis) infected by all stages of the green peach aphid (Myzus persicae) are sprayed with an active compound preparation of the desired concentration. After 5 days, the effect in % is determined 100% means that all of the aphids have been killed; 0% means that none of the aphids have been killed. Myzus Test (MYZUPE Spray Treatment) To produce a suitable preparation of active compound, 1 part by weight of active compound is mixed with the stated amount of solvent and emulsifier, and the concentrate is diluted with emulsifier-containing water to the desired concentration. Discs of Chinese cabbage (Brassica pekinensis) infected by all stages of the green peach aphid (Myzus persicae) are sprayed with an active compound preparation of the desired concentration. After the desired period of time, the activity in % is determined. 100% means that all of the aphids have been killed; 0% means that none of the aphids have been killed.

Lolium multiflorum = assay: Herbicidal post-emergence action, LOLMU; details: 320 g/ha
Description: (§1) 2. Herbicidal Post-Emergence Action
(§2) • Seeds of monocotyledonous and dicotyledonous weed and crop plants are placed in sandy loam in wood-fiber pots, covered with soil and cultivated in a greenhouse under good growth conditions. 2 to 3 weeks after sowing, the test plants are treated at the one-leaf stage. The test compounds, formulated as wettable powders (WP), are then, with a water application rate of 600 l/ha (converted), with 0.2% of wetting agent added, sprayed at various dosages onto the green parts of the plants. After the test plants have been kept in the greenhouse under optimum growth conditions for about 3 weeks, the activity of the preparations is rated visually in comparison to untreated controls (herbicidal activity in percent: 100% activity=the plants have died, 0% activity=like control plants). • In addition to the compounds mentioned above, the following compounds show an activity of 90-100% against Alopecurus myosuroides, Avena fatua, Digitaria sanguinalis, Echinocloa crus-galli, Lolium multiflorum, Setaria viridis and Sorghum halapense when applied by the post-emergence method at 320 g/ha: I-a-2, I-a-4, I-a-5, I-a-7, I-a-9, I-a-10, I-a-11, I-a-12, I-a-13, I-a-15. • In addition to the compounds mentioned above, the following compounds show an activity of 90-100% against Alopecurus myosuroides, Avena fatua, Echinocloa crus-galli, Lolium multiflorum and Setaria viridis when applied by the post-emergence method at 80 g/ha: I-a-1, I-b-2.
(§3) • Seeds of monocotyledonous and dicotyledonous weed plants and crop plants are placed in wood-fiber pots in sandy loam and covered with soil. The test compounds, formulated in the form of wettable powders (WP) or emulsion concentrates (EC), are then, as an aqueous suspension with a water application rate of 600-800 l/ha (converted), with 0.1-0.2% of wetting agent added, applied at various dosages to the surface of the covering soil. • After the treatment, the pots are placed in a greenhouse and kept under good growth conditions for the test plants. […] Herbicidal Post-Emergence Action (Post) • Seeds of monocotyledonous and dicotyledonous weed and crop plants are placed in sandy loam in wood-fiber pots, covered with soil and cultivated in a greenhouse under good growth conditions. 2-3 weeks (stages 10-13 according to the BBCH scale) after sowing, the test plants are treated at a height of 5-10 cm. The test compounds, formulated as wettable powders (WP) or emulsion concentrates (EC), are then, with a water application rate of 600-800 l/ha (converted), with 0.1-0.2% of wetting agent added, sprayed at various dosages onto the green parts of the plants.
(§4) AVEFA: Avena fatua LOLMU: Lolium multiflorum SETVI: Setaria viridis CHEAL: Chenopodium album VIOTR: Viola tricolor VERPE: Veronica persica ORYSA: Oryza sativa TRZAS: Triticum aestivum ZEAMX: Zea mays ALOMY: Alopecurus myosuroides DIGSA: Digitaria sanguinalis ECHCG: Echinocloa crus-galli SORHA: Sorghum halepense AVESA: Avena sativa AMARE: Amaranthus retroflexus SINAL: Sinapis alba STEME: Stellaria media

Setaria viridis = assay: Herbicidal post-emergence action, SETVI; details: 320 g/ha
Description: as §1, §2, §3, §4

Avena sativa = assay: Herbicidal post-emergence action, AVESA
Source text: as §3, with “the plants. […]” for “the plants.”

Amaranthus retroflexus = assay: Herbicidal post-emergence action, AMARE
Source text: as §3, with “the plants. […]” for “the plants.”

Sinapis alba = assay: Herbicidal post-emergence action, SINAL
Source text: as §3, with “the plants. […]” for “the plants.”

Stellaria media = assay: Herbicidal post-emergence action, STEME
Source text: as §3, with “the plants. […]” for “the plants.”

Spodoptera frugiperda = Spodoptera frugiperda test (SPODFR spray treatment); details: Spodoptera frugiperda, 168 h; 500 g/ha; 7dat
Description: Spodoptera Frugiperda Test (SPODFR Spray Treatment) [table] To produce a suitable preparation of active compound, 1 part by weight of active compound is mixed with the stated amount of solvent and emulsifier, and the concentrate is diluted with emulsifier-containing water to the desired concentration. Discs of corn leaves (Zea mays) are sprayed with an active compound preparation of the desired concentration and, after drying, populated with caterpillars of the armyworm (Spodoptera frugiperda). After 7 days, the effect in % is determined. 100% means that all caterpillars have been killed; 0% means that none of the caterpillars have been killed. Spodoptera Frugiperda Test (SPODFR Spray Treatment) To produce a suitable preparation of active compound, 1 part by weight of active compound is mixed with the stated amount of solvent and emulsifier, and the concentrate is diluted with emulsifier-containing water to the desired concentration. Discs of corn leaves (Zea mays) are sprayed with an active compound preparation of the desired concentration and, after drying, populated with caterpillars of the armyworm (Spodoptera frugiperda). After the desired period of time, the activity in % is determined. 100% means that all caterpillars have been killed; 0% means that none of the caterpillars have been killed.

Tetranychus urticae = assay: Tetranychus test (TETRUR spray treatment; OP-resistant in Example 10); details: Tetranychus urticae, 120 h; 20 g/ha; 5dat; OP-resistant
Description: Tetranychus Test (TETRUR Spray Treatment)
To produce a suitable preparation of active compound, 1 part by weight of active compound is mixed with the stated amount of solvent and emulsifier, and the concentrate is diluted with emulsifier-containing water to the desired concentration. Discs of bean leaves (Phaseolus vulgaris) which are infested by all stages of the greenhouse red spider mite (Tetranychus urticae) are sprayed with an active compound preparation of the desired concentration.
After 5 days, the effect in % is determined. 100% means that all of the spider mites have been killed; 0% means that none of the spider mites have been killed.
Tetranychus Test, OP-Resistant (TETRUR Spray Treatment)
To produce a suitable preparation of active compound, 1 part by weight of active compound is mixed with the stated amount of solvent and emulsifier, and the concentrate is diluted with emulsifier-containing water to the desired concentration.
Discs of bean leaves (Phaseolus vulgaris) which are infested by all stages of the greenhouse red spider mite (Tetranychus urticae) are sprayed with an active compound preparation of the desired concentration.
After the desired period of time, the activity in % is determined. 100% means that all of the spider mites have been killed; 0% means that none of the spider mites have been killed.

Liriomyza trifolii = Liriomyza trifolii spray test (LIRITR); details: Liriomyza trifolii, 168 h, 7dat, read-out: % Activity LIRITRI
Description: Liriomyza Trifolii-Spray Test ([…]) To produce a suitable preparation of active compound, 1 part by weight of active compound is mixed with the stated amount of solvent and emulsifier, and the concentrate is diluted with emulsifier-containing water to the desired concentration. If the addition of ammonium salts or/and penetrants is required, these are in each case added in a concentration of 1000 ppm to the solution of the preparations. Discs of bean leaves (Phaseolus vulgaris) which are infested by all stages of the leaf-mining fly (Liriomyza trifolii) are sprayed with an active compound preparation of the desired concentration. After the desired period of time, the activity in % is determined. 100% means that all of the leaf-mining flies have been killed; 0% means that none of the leaf-mining flies have been killed.

Bemisia tabaci = Bemisia tabaci spray test (BEMITA); details: Bemisia tabaci, 168 h, 7dat
Description: Bemisia Tabaci-Spray Test ([…]) To produce a suitable preparation of active compound, 1 part by weight of active compound is mixed with the stated amount of solvent and emulsifier, and the concentrate is diluted with emulsifier-containing water to the desired concentration. Discs of cotton leaves (Gossypium hirsutum) which are infested by all stages of the whitefly (Bemisia tabaci) are sprayed with an active compound preparation of the desired concentration. After the desired period of time, the activity in % is determined. 100% means that all the whiteflies have been killed; 0% means that none of the whiteflies have been killed.

CCc1cc(Cl)cc(OC)c1C1=C(OC(=O)C(C)(C)C)NC2(CCC(OC)CC2)C1=O (centres unmarked) [I-a-9]
effect in % (aphids killed) (Myzus persicae): 80% | % Activity LOLMU (Lolium multiflorum): 100% | % Activity SETVI (Setaria viridis): 100% | % Activity AVESA (Avena sativa; 320 g/ha): 90% | % Activity AMARE (Amaranthus retroflexus; 320 g/ha): 40% | % Activity SINAL (Sinapis alba; 320 g/ha): 60% | % Activity STEME (Stellaria media; 320 g/ha): 40%

CCc1cc(Cl)cc(OC)c1C1=C(OC(=O)C(C)(C)C)C2(CCC(OC)CC2)NC1=O (centres unmarked)
inhibition at 320 g/ha (Lolium multiflorum; Lolium multiflorum, post-emergence): 0% | inhibition at 320 g/ha (Setaria viridis; Setaria viridis, post-emergence): 0% | inhibition at 320 g/ha (Avena sativa; Avena sativa, post-emergence): 0% | inhibition at 320 g/ha (Amaranthus retroflexus; Amaranthus retroflexus, post-emergence): 0% | inhibition at 320 g/ha (Sinapis alba; Sinapis alba, post-emergence): 0% | inhibition at 320 g/ha (Stellaria media; Stellaria media, post-emergence): 0%

CCOC(=O)OC1=C(c2c(C)cc(C)cc2C)C(=O)NC12CCC(COC)CC2 (centres unmarked) [I-1-c-16 known from WO 07/048545]
inhibition at 500 g/ha (Spodoptera frugiperda): 67% | inhibition at 20 g/ha (Tetranychus urticae): 0% | inhibition at 20 g/ha (Liriomyza trifolii): 0% | inhibition at 20 g/ha (Bemisia tabaci): 27%
